Reference: patent publication US20210214421A1 (priority 2018, published 2021)

Legend:
Assay in all cases: microbe, parasite or virus in culture
Assay type in all cases: cell-based
[1] = system: Staphylococcus pseudintermedius strain 69687; settings: Staphylococcus pseudintermedius, 69687, 24 h, read-out: minimal inhibiting concentration (breakthrough point)
[2] = system: Staphylococcus pseudintermedius strain GL151A; settings: 24 h, read-out: minimal inhibiting concentration (breakthrough point)
[3] = system: Staphylococcus pseudintermedius strain 23929; settings: Staphylococcus pseudintermedius, 23929, 24 h, read-out: minimal inhibiting concentration (breakthrough point)
[4] = system: Staphylococcus pseudintermedius strain HH15; settings: HH15, 24 h, read-out: minimal inhibiting concentration (breakthrough point)

Measured: MIC

CCC[C@@H]1C[C@@H](C(=O)N[C@@H]([C@H]2O[C@H](SC)[C@H](O)[C@@H](O)[C@H]2O)[C@H](C)Cl)N(C)C1 [clindamycin]
625 µg/mL: all assays above
